Laboratory results published in patent US6573218B1, “Fused-benzene derivatives useful as herbicides” (Ishihara Sangyo Kaisha, Ltd., priority 1998, dated 2003).

Columns and labels:
Type in all cases: in vivo
[1] = system: barnyardgrass (Echinochloa crus-galli, ECHCG); assay: Pre-emerge greenhouse herbicide test; details: 14 days after application, scale 0-100 (0 no damage, 100 complete death)
Source text: (§1) A standard greenhouse herbicide activity screening system was used to evaluate the herbicidal efficacy and crop safety of these test compounds. Seven broadleaf weed species including redroot pigweed (Amaranthus retroflexus, AMARE), velvetleaf (Abutilon theophrasti, ABUTH), sicklepod (Cassia obtusifolia, CASOB), ivyleaf morningglory (Ipomoea hederacea, IPOHE), lambsquarters (Chenopodium album, CHEAL), common ragweed (Ambrosia artemisiifolia L., AMBEL), and cocklebur (Xanthium strumarium, XANST) were used as test species. Four grass weed species including green foxtail (Setaria viridis, SETVI), barnyardgrass (Echinochloa crus-galli, ECHCG), johnsongrass (Sorghum halepense, SORHA), and large crabgrass (Digitaria sanguinalis, DIGSA) were also used. In addition, three crop species, field corn (Zea mays L., var. Dekalb 527, CORN), soybean (Glycine max L., var. Pella 86, SOY), and upland rice (Ory0a sp., var.Tebonnet, RICE) were included.
(§2) All plants were grown in 10 cm square plastic pots which were filled with a sandy loam soil mix. For pre-emerge tests, seeds were planted one day prior to application of the test compounds. For post-emerge tests, seeds were planted 8-21 days prior to the test to allow emergence and good foliage development prior to application of the test substances. At the time of the post-emerge application, plants of all species were usually at the 2-3 leaf stage of development.
(§3) All test compounds were dissolved in acetone and applied to the test units in a volume of 187 l/ha. Test materials were applied at rates ranging from 15 g ai/ha to 1000 g ai/ha using a track sprayer equipped with a TJ8001E even flow flat fan spray nozzle. Plants were arranged on a shelf so that the top of the canopy (post-emerge) or top of the soil surface (pre-emerge) was 40-45 cm below the nozzle. Pressurized air was used to force the test solution through the nozzle as it was mechanically advanced over the top of all test plants/pots. This application simulates a typical commercial field herbicide application.
(§4) In the post-emerge test, a commercial non-ionic surfactant was also included (0.25% v/v) to enhance wetting of the leaf surfaces of target plants. Immediately after application, test units of the pre-emerge applications were watered at the soil surface to incorporate the test materials.
(§5) At 14 days after application of the test materials, phytotoxicity ratings were recorded. A rating scale of 0-100 was used as previously described in Research Methods in Weed Science, 2nd edition, B. Truelove, Ed., Southern Weed Science Society, Auburn University, Auburn, Ala., 1977. Briefly, “0” corresponds to no damage and “100” corresponds to complete death of all plants in the test unit. This scale was used both to determine efficacy against weed species and damage to crop species. Herbicide activity data for various compounds of this invention, which are shown by compound No. in Tables 1-14, are shown in Tables 16 and 17.

[2] = system: green foxtail (Setaria viridis, SETVI); assay: Pre-emerge greenhouse herbicide test; details: 14 days after application, scale 0-100 (0 no damage, 100 complete death)
Source text: as §1, §2, §3, §4, §5

[3] = system: ivyleaf morningglory (Ipomoea hederacea, IPOHE); assay: Pre-emerge greenhouse herbicide test; details: 14 days after application, scale 0-100 (0 no damage, 100 complete death)
Source text: as §1, §2, §3, §4, §5

[4] = system: johnsongrass (Sorghum halepense, SORHA); assay: Pre-emerge greenhouse herbicide test; details: 14 days after application, scale 0-100 (0 no damage, 100 complete death)
Source text: as §1, §2, §3, §4, §5

[5] = system: lambsquarters (Chenopodium album, CHEAL); assay: Pre-emerge greenhouse herbicide test; details: 14 days after application, scale 0-100 (0 no damage, 100 complete death)
Source text: as §1, §2, §3, §4, §5

[6] = system: large crabgrass (Digitaria sanguinalis, DIGSA); assay: Pre-emerge greenhouse herbicide test; details: 14 days after application, scale 0-100 (0 no damage, 100 complete death)
Source text: as §1, §2, §3, §4, §5

[7] = system: redroot pigweed (Amaranthus retroflexus, AMARE); assay: Pre-emerge greenhouse herbicide test; details: 14 days after application, scale 0-100 (0 no damage, 100 complete death)
Source text: as §1, §2, §3, §4, §5

[8] = system: sicklepod (Cassia obtusifolia, CASOB); assay: Pre-emerge greenhouse herbicide test; details: 14 days after application, scale 0-100 (0 no damage, 100 complete death)
Source text: as §1, §2, §3, §4, §5

[9] = system: velvetleaf (Abutilon theophrasti, ABUTH); assay: Pre-emerge greenhouse herbicide test; details: 14 days after application, scale 0-100 (0 no damage, 100 complete death)
Source text: as §1, §2, §3, §4, §5

[10] = system: field corn (Zea mays L., var. Dekalb 527, CORN); assay: Pre-emerge greenhouse crop damage test; details: var. Dekalb 527, field corn (Zea mays L.), in vivo, 14 days
Source text: as §1, §2, §3, §4, §5

[11] = system: soybean (Glycine max L., var. Pella 86, SOY); assay: Pre-emerge greenhouse crop damage test; details: var. Pella 86, soybean (Glycine max L.), in vivo, 14 days
Source text: as §1, §2, §3, §4, §5

[12] = system: upland rice (Ory0a sp., var.Tebonnet, RICE); assay: Pre-emerge greenhouse crop damage test; details: var. Tebonnet, upland rice (Ory0a sp.), in vivo, 14 days
Source text: as §1, §2, §3, §4, §5

[13] = system: barnyardgrass (Echinochloa crus-galli, ECHCG); assay: Post-emerge greenhouse herbicide test; details: 14 days after application
Source text: as §1, §2, §3, §4, §5

[14] = system: green foxtail (Setaria viridis, SETVI); assay: Post-emerge greenhouse herbicide test; details: 14 days after application
Source text: as §1, §2, §3, §4, §5

[15] = system: ivyleaf morningglory (Ipomoea hederacea, IPOHE); assay: Post-emerge greenhouse herbicide test; details: 14 days after application
Source text: as §1, §2, §3, §4, §5

[16] = system: johnsongrass (Sorghum halepense, SORHA); assay: Post-emerge greenhouse herbicide test; details: 14 days after application
Source text: as §1, §2, §3, §4, §5

[17] = system: lambsquarters (Chenopodium album, CHEAL); assay: Post-emerge greenhouse herbicide test; details: 14 days after application
Source text: as §1, §2, §3, §4, §5

[18] = system: large crabgrass (Digitaria sanguinalis, DIGSA); assay: Post-emerge greenhouse herbicide test; details: 14 days after application
Source text: as §1, §2, §3, §4, §5

[19] = system: redroot pigweed (Amaranthus retroflexus, AMARE); assay: Post-emerge greenhouse herbicide test; details: 14 days after application
Source text: as §1, §2, §3, §4, §5

[20] = system: sicklepod (Cassia obtusifolia, CASOB); assay: Post-emerge greenhouse herbicide test; details: 14 days after application
Source text: as §1, §2, §3, §4, §5

[21] = system: velvetleaf (Abutilon theophrasti, ABUTH); assay: Post-emerge greenhouse herbicide test; details: 14 days after application
Source text: as §1, §2, §3, §4, §5

[22] = system: field corn (Zea mays L., var. Dekalb 527, CORN); assay: Post-emerge greenhouse crop damage test; details: var. Dekalb 527, field corn (Zea mays L.), in vivo, 14 days
Source text: as §1, §2, §3, §4, §5

[23] = system: soybean (Glycine max L., var. Pella 86, SOY); assay: Post-emerge greenhouse crop damage test; details: var. Pella 86, soybean (Glycine max L.), in vivo, 14 days
Source text: as §1, §2, §3, §4, §5

[24] = system: upland rice (Ory0a sp., var.Tebonnet, RICE); assay: Post-emerge greenhouse crop damage test; details: var. Tebonnet, upland rice (Ory0a sp.), in vivo, 14 days
Source text: as §1, §2, §3, §4, §5

SMILES: Cn1c(C(F)(F)F)cc(=O)n(-c2c(F)cc(Cl)c3c2N=C(c2ccccc2)CO3)c1=O [Compound 1-3, 3-(8-Chloro-6-fluoro-3-phenyl-2H-1,4-benzoxazin-5-yl)-1-methyl-6-trifluoromethyl-2,4(1H,3H)-pyrimidindione]
- Pre-emerge Herbicidal Activity ECHCG (phytotoxicity rating) ([1]; 250 g ai/ha): 0
- Pre-emerge Herbicidal Activity SETVI (phytotoxicity rating) ([2]; 250 g ai/ha): 80
- Pre-emerge Herbicidal Activity IPOHE (phytotoxicity rating) ([3]; 250 g ai/ha): 0
- Pre-emerge Herbicidal Activity SORHA (phytotoxicity rating) ([4]; 250 g ai/ha): 0
- Pre-emerge Herbicidal Activity CHEAL (phytotoxicity rating) ([5]; 250 g ai/ha): 100
- Pre-emerge Herbicidal Activity DIGSA (phytotoxicity rating) ([6]; 250 g ai/ha): 0
- Pre-emerge Herbicidal Activity AMARE (phytotoxicity rating) ([7]; 250 g ai/ha): 100
- Pre-emerge Herbicidal Activity CASOB (phytotoxicity rating) ([8]; 250 g ai/ha): 80
- Pre-emerge Herbicidal Activity ABUTH (phytotoxicity rating) ([9]; 250 g ai/ha): 80
- Pre-emerge Herbicidal Activity CORN (crop damage rating) [10]: 0
- Pre-emerge Herbicidal Activity SOY (crop damage rating) [11]: 0
- Pre-emerge Herbicidal Activity RICE (crop damage rating) [12]: 10
- Post-emerge Herbicidal Activity ECHCG (phytotoxicity rating 0-100) ([13]; 250 g ai/ha): 0
- Post-emerge Herbicidal Activity SETVI (phytotoxicity rating 0-100) ([14]; 250 g ai/ha): 0
- Post-emerge Herbicidal Activity IPOHE (phytotoxicity rating 0-100) ([15]; 250 g ai/ha): 30
- Post-emerge Herbicidal Activity SORHA (phytotoxicity rating 0-100) ([16]; 250 g ai/ha): 0
- Post-emerge Herbicidal Activity CHEAL (phytotoxicity rating 0-100) ([17]; 250 g ai/ha): 20
- Post-emerge Herbicidal Activity DIGSA (phytotoxicity rating 0-100) ([18]; 250 g ai/ha): 0
- Post-emerge Herbicidal Activity AMARE (phytotoxicity rating 0-100) ([19]; 250 g ai/ha): 60
- Post-emerge Herbicidal Activity CASOB (phytotoxicity rating 0-100) ([20]; 250 g ai/ha): 0
- Post-emerge Herbicidal Activity ABUTH (phytotoxicity rating 0-100) ([21]; 250 g ai/ha): 90
- Post-emerge crop damage CORN (phytotoxicity rating 0-100) [22]: 10
- Post-emerge crop damage SOY (phytotoxicity rating 0-100) [23]: 30
- Post-emerge crop damage RICE (phytotoxicity rating 0-100) [24]: 20

SMILES: Cn1c(C(F)(F)F)cc(=O)n(-c2c(F)cc(Cl)c3c2NCCO3)c1=O [Compound 2-1, 3-(8-Chloro-6-fluoro-3,4-dihydro-2H-1,4-benzoxazin-5-yl)-1-methyl-6-trifluoromethyl-2,4(1H,3H)-pyrimidindione]
- Pre-emerge Herbicidal Activity ECHCG (phytotoxicity rating) ([1]; 125 g ai/ha): 50
- Pre-emerge Herbicidal Activity SETVI (phytotoxicity rating) ([2]; 125 g ai/ha): 100
- Pre-emerge Herbicidal Activity IPOHE (phytotoxicity rating) ([3]; 125 g ai/ha): 50
- Pre-emerge Herbicidal Activity SORHA (phytotoxicity rating) ([4]; 125 g ai/ha): 95
- Pre-emerge Herbicidal Activity CHEAL (phytotoxicity rating) ([5]; 125 g ai/ha): 100
- Pre-emerge Herbicidal Activity DIGSA (phytotoxicity rating) ([6]; 125 g ai/ha): 100
- Pre-emerge Herbicidal Activity AMARE (phytotoxicity rating) ([7]; 125 g ai/ha): 100
- Pre-emerge Herbicidal Activity CASOB (phytotoxicity rating) ([8]; 125 g ai/ha): 40
- Pre-emerge Herbicidal Activity ABUTH (phytotoxicity rating) ([9]; 125 g ai/ha): 100
- Pre-emerge Herbicidal Activity CORN (crop damage rating) [10]: 20
- Pre-emerge Herbicidal Activity SOY (crop damage rating) [11]: 50
- Pre-emerge Herbicidal Activity RICE (crop damage rating) [12]: 70
- Post-emerge Herbicidal Activity ECHCG (phytotoxicity rating 0-100) ([13]; 125 g ai/ha): 10
- Post-emerge Herbicidal Activity SETVI (phytotoxicity rating 0-100) ([14]; 125 g ai/ha): 50
- Post-emerge Herbicidal Activity IPOHE (phytotoxicity rating 0-100) ([15]; 125 g ai/ha): 100
- Post-emerge Herbicidal Activity SORHA (phytotoxicity rating 0-100) ([16]; 125 g ai/ha): 0
- Post-emerge Herbicidal Activity CHEAL (phytotoxicity rating 0-100) ([17]; 125 g ai/ha): 100
- Post-emerge Herbicidal Activity DIGSA (phytotoxicity rating 0-100) ([18]; 125 g ai/ha): 0
- Post-emerge Herbicidal Activity AMARE (phytotoxicity rating 0-100) ([19]; 125 g ai/ha): 90
- Post-emerge Herbicidal Activity CASOB (phytotoxicity rating 0-100) ([20]; 125 g ai/ha): 80
- Post-emerge Herbicidal Activity ABUTH (phytotoxicity rating 0-100) ([21]; 125 g ai/ha): 100
- Post-emerge crop damage CORN (phytotoxicity rating 0-100) [22]: 20
- Post-emerge crop damage SOY (phytotoxicity rating 0-100) [23]: 90
- Post-emerge crop damage RICE (phytotoxicity rating 0-100) [24]: 40
